# Measured values from US8742106B2 (Novartis AG, priority 2009, dated 2014).
# Assays:
# human orexin 1 receptors = human orexin 1 receptors (Homo sapiens (Human), UniProt O43613); experiment: Calcium Accumulation in Cells (FLIPR), antagonism of orexin A; format: cell-based; conditions: for inhibition at 10 µM: measured at a concentration of 10 μM of compound, read-out: FLIPR hOx1R % inhibition value; for Ki: antagonism of orexin A, Cheng-Prusoff corrected, read-out: FLIPR hOx1R Ki
# human orexin 2 receptors = human orexin 2 receptors (Homo sapiens (Human), UniProt O43614); experiment: as above; format: cell-based; conditions: for inhibition at 10 µM: measured at a concentration of 10 μM of compound, read-out: FLIPR hOx2R % inhibition value; for Ki: antagonism of orexin A, Cheng-Prusoff corrected, read-out: FLIPR hOx2R Ki
# Sequence of human orexin 2 receptors (O43614 whole entry): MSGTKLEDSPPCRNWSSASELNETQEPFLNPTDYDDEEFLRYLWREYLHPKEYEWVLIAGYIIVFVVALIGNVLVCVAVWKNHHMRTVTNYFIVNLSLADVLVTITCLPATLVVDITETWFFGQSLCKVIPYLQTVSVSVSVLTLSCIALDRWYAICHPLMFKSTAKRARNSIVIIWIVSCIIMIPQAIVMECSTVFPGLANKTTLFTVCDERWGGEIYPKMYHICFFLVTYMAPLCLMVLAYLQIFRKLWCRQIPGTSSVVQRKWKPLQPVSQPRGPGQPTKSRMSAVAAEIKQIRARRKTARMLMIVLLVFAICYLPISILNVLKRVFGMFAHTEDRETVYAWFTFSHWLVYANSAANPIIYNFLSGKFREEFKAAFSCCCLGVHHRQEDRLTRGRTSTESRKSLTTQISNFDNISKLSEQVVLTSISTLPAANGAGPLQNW
# Procedure, shortened: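 Cells expressing human orexin 2 receptor, loaded with Fluo4-AM (2 μM) plus probenecid (0.1 mM) for 1 h, then washed. Antagonism read as inhibition of the orexin A calcium fluorescence signal (FLIPR).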
# Sequence of human orexin 1 receptors (O43613 whole entry): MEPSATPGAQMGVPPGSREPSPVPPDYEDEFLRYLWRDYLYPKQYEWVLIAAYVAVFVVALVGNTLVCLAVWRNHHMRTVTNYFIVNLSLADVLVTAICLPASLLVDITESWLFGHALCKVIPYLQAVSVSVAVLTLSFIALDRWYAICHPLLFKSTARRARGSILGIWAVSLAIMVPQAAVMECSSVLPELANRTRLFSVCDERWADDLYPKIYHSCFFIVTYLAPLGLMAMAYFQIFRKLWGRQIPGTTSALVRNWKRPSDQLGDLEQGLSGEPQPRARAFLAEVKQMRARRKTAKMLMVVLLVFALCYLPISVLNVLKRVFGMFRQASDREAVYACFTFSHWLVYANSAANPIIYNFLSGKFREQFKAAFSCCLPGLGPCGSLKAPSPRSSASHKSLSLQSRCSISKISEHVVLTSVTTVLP
SMILES,inhibition at 10 µM (human orexin 1 receptors) [%],inhibition at 10 µM (human orexin 2 receptors) [%],Ki (human orexin 2 receptors) [nM],Ki (human orexin 1 receptors) [nM]
"COc1ccc([C@H](C)NC(=O)COc2nc3c(cc2C)c(C2CC2)nn3C)cc1 [Example 6.76, (S)-2-(3-cyclopropyl-1,5-dimethyl-1H-pyrazolo[3,4-b]pyridin-6-yloxy)-N-(1-(4-methoxyphenyl)ethyl)acetamide]",23,34,–,–
"C[C@H](NC(=O)COc1cc(C(F)(F)F)c2c(-c3ccccc3)noc2n1)c1ccccc1 [Example 6.78, (S)-2-(3-phenyl-4-(trifluoromethyl)isoxazolo[5,4-b]pyridin-6-yloxy)-N-(1-phenylethyl)acetamide]",43,–,1830,–
"Cc1cnc(CNC(=O)COc2cc(C)c3c(C4CC4)nn(C)c3n2)cn1 [Example 7.2, 2-(3-cyclopropyl-1,4-dimethyl-1H-pyrazolo[3,4-b]pyridin-6-yloxy)-N-((5-methylpyrazin-2-yl)methyl)acetamide]",< 10,15,–,–
"Cc1cc(OCC(=O)NCCCn2ccnc2)nc2c1c(C1CC1)nn2C [Example 7.3, N-(3-(1H-imidazol-1-yl)propyl)-2-(3-cyclopropyl-1,4-dimethyl-1H-pyrazolo[3,4-b]pyridin-6-yloxy)acetamide]",< 10,16,–,–
"Cc1cc(OCC(=O)NCc2ccc3c(c2)CCO3)nc2c1c(C1CC1)nn2C [Example 7.4, 2-(3-cyclopropyl-1H-dimethyl-1H-pyrazolo[3,4-b]pyridin-6-yloxy)-N-((2,3-dihydrobenzofuran-5-yl)methyl)acetamide]",< 10,26,–,–
"Cc1cc(OCC(=O)NCCc2c[nH]c3ccccc23)nc2c1c(C1CC1)nn2C [Example 7.5, N-(2-(1H-indol-3-yl)ethyl)-2-(3-cyclopropyl-1H-dimethyl-1H-pyrazolo[3,4-b]pyridin-6-yloxy)acetamide]",< 10,–,479,–
"Cc1cc(OCC(=O)NCC2CCCCC2)nc2c1c(C1CC1)nn2C [Example 7.6, N-(cyclohexylmethyl)-2-(3-cyclopropyl-1,4-dimethyl-1H-pyrazolo[3,4-b]pyridin-6-yloxy)acetamide]",18,< 10,–,–
"Cc1cccc(C(C)NC(=O)COc2cc(C)c3c(C4CC4)nn(C)c3n2)n1 (centres unmarked) [Example 7.7, 2-(3-cyclopropyl-1,4-dimethyl-1H-pyrazolo[3,4-b]pyridin-6-yloxy)-N-(1-(6-methylpyridin-2-yl)ethyl)acetamide]",32,21,–,–
"Cc1cc(OCC(=O)NC2CCCc3ncccc32)nc2c1c(C1CC1)nn2C (centres unmarked) [Example 7.8, 2-(3-cyclopropyl-1H-dimethyl-1H-pyrazolo[3,4-b]pyridin-6-yloxy)-N-(5,6,7,8-tetrahydroquinolin-5-yl)acetamide]",26,20,–,–
"COc1ccc2c(c1)C(NC(=O)COc1cc(C)c3c(C4CC4)nn(C)c3n1)CC2 (centres unmarked) [Example 7.9, 2-(3-cyclopropyl-1,4-dimethyl-1H-pyrazolo[3,4-b]pyridin-6-yloxy)-N-(6-methoxy-2,3-dihydro-1H-inden-1-yl)acetamide]",–,–,742,877
"Cc1cc(OCC(=O)NCc2cccc3cnn(C)c23)nc2c1c(C1CC1)nn2C [Example 7.10, 2-(3-cyclopropyl-1,4-dimethyl-1H-pyrazolo[3,4-b]pyridin-6-yloxy)-N-((1-methyl-1H-indazol-7-yl)methyl)acetamide]",34,40,–,–
"COc1cccc([C@H](C)NC(=O)COc2cc(C)c3c(C4CC4)nn(C)c3n2)c1 [Example 7.12, (S)-2-(3-cyclopropyl-1,4-dimethyl-1H-pyrazolo[3,4-b]pyridin-6-yloxy)-N-(1-(3-methoxyphenyl)ethyl)acetamide]",–,43,–,736
"COc1ccccc1[C@H](C)NC(=O)COc1cc(C)c2c(C3CC3)nn(C)c2n1 [Example 7.13, (S)-2-(3-cyclopropyl-1,4-dimethyl-1H-pyrazolo[3,4-b]pyridin-6-yloxy)-N-(1-(2-methoxyphenyl)ethyl)acetamide]",–,–,450,1540
"Cc1cc(OCC(=O)NCc2ccc(Cl)nc2)nc2c1c(C1CC1)nn2C [Example 7.14, N-((6-chloropyridin-3-yl)methyl)-2-(3-cyclopropyl-1,4-dimethyl-1H-pyrazolo[3,4-b]pyridin-6-yloxy)acetamide]",31,20,–,–
"Cc1cc(OCC(=O)NCc2cccc3[nH]ncc23)nc2c1c(C1CC1)nn2C [Example 7.15, N-((1H-indazol-4-yl)methyl)-2-(3-cyclopropyl-1,4-dimethyl-1H-pyrazolo[3,4-b]pyridin-6-yloxy)acetamide]",26,18,–,–
"COc1ccc(CNC(=O)COc2cc(C)c3c(C4CC4)nn(C)c3n2)cc1Cl [Example 7.16, N-(3-chloro-4-methoxybenzyl)-2-(3-cyclopropyl-1,4-dimethyl-1H-pyrazolo[3,4-b]pyridin-6-yloxy)acetamide]",–,–,1030,3630

SMILES,inhibition at 10 µM (human orexin 1 receptors) [%],inhibition at 10 µM (human orexin 2 receptors) [%],Ki (human orexin 2 receptors) [nM],Ki (human orexin 1 receptors) [nM]
"Cc1cc(OCC(=O)NC(C)c2ccc3[nH]ccc3c2)nc2c1c(C1CC1)nn2C (centres unmarked) [Example 7.17, N-(1-(1H-indol-5-yl)ethyl)-2-(3-cyclopropyl-1,4-dimethyl-1H-pyrazolo[3,4-b]pyridin-6-yloxy)acetamide]",–,–,94,414
"Cc1cccnc1CNC(=O)COc1cc(C)c2c(C3CC3)nn(C)c2n1 [Example 7.18, 2-(3-cyclopropyl-1,4-dimethyl-1H-pyrazolo[3,4-b]pyridin-6-yloxy)-N-((3-methylpyridin-2-yl)methyl)acetamide]",< 10,11,–,–
"COc1ccc(C(C)NC(=O)COc2cc(C)c3c(C4CC4)nn(C)c3n2)cc1F (centres unmarked) [Example 7.19, 2-(3-cyclopropyl-1,4-dimethyl-1H-pyrazolo[3,4-b]pyridin-6-yloxy)-N-(1-(3-fluoro-4-methoxy-phenyl)ethyl)acetamide]",–,–,674,2620
"Cc1cc(OCC(=O)NC(C)c2cnn(C)c2)nc2c1c(C1CC1)nn2C (centres unmarked) [Example 7.20, 2-(3-cyclopropyl-1,4-dimethyl-1H-pyrazolo[3,4-b]pyridin-6-yloxy)-N-(1-(1-methyl-1H-pyrazol-4-yl)ethyl)acetamide]",34,31,–,–
"Cc1ccnc(C(C)NC(=O)COc2cc(C)c3c(C4CC4)nn(C)c3n2)c1 (centres unmarked) [Example 7.21, 2-(3-cyclopropyl-1,4-dimethyl-1H-pyrazolo[3,4-b]pyridin-6-yloxy)-N-(1-(4-methylpyridin-2-yl)ethyl)acetamide]",< 10,22,–,–
"Cc1csc(C(C)NC(=O)COc2cc(C)c3c(C4CC4)nn(C)c3n2)n1 (centres unmarked) [Example 7.22, 2-(3-cyclopropyl-1,4-dimethyl-1H-pyrazolo[3,4-b]pyridin-6-yloxy)-N-(1-(4-methylthiazol-2-yl)ethyl)acetamide]",40,32,–,–
"Cc1cc(OCC(=O)NC(C)c2nc3ccccc3s2)nc2c1c(C1CC1)nn2C (centres unmarked) [Example 7.23, N-(1-(benzo[d]thiazol-2-yl)ethyl)-2-(3-cyclopropyl-1,4-dimethyl-1H-pyrazolo[3,4-b]pyridin-6-yloxy)acetamide]",–,–,150,564
"Cc1cc(OCC(=O)NC2CCCc3c2cnn3C)nc2c1c(C1CC1)nn2C (centres unmarked) [Example 7.24, 2-(3-cyclopropyl-1,4-dimethyl-1H-pyrazolo[3,4-b]pyridin-6-yloxy)-N-(1-methyl-4,5,6,7-tetrahydro-1H-indazol-4-yl)acetamide]",28,25,–,–
"Cc1cc(OCC(=O)NC(C)c2cn3ccsc3n2)nc2c1c(C1CC1)nn2C (centres unmarked) [Example 7.25, 2-(3-cyclopropyl-1,4-dimethyl-1H-pyrazolo[3,4-b]pyridin-6-yloxy)-N-(1-(imidazo[2,1-b]thiazol-6-yl)ethyl)acetamide]",–,–,584,1560
"Cc1cc(OCC(=O)N[C@@H](C)CCc2ccccc2)nc2c1c(C1CC1)nn2C [Example 7.26, (S)-2-(3-cyclopropyl-1,4-dimethyl-1H-pyrazolo[3,4-b]pyridin-6-yloxy)-N-(4-phenylbutan-2-yl)acetamide]",–,–,184,1640
"COc1ccc(CNC(=O)COc2cc(C)c3c(C4CC4)nn(C)c3n2)c(OC)c1 [Example 7.27, 2-(3-cyclopropyl-1,4-dimethyl-1H-pyrazolo[3,4-b]pyridin-6-yloxy)-N-(2,4-dimethoxybenzyl)acetamide]",48,–,472,–
"Cc1ccc2c(c1)C(NC(=O)COc1cc(C)c3c(C4CC4)nn(C)c3n1)CC2 (centres unmarked) [Example 7.28, 2-(3-cyclopropyl-1,4-dimethyl-1H-pyrazolo[3,4-b]pyridin-6-yloxy)-N-(6-methyl-2,3-dihydro-1H-inden-1-yl)acetamide]",34,37,–,–
"Cc1cccc(C(C)NC(=O)COc2cc(C)c3c(C4CC4)nn(C)c3n2)c1 (centres unmarked) [Example 7.29, 2-(3-cyclopropyl-1,4-dimethyl-1H-pyrazolo[3,4-b]pyridin-6-yloxy)-N-(1-m-tolylethyl)acetamide]",–,–,900,1800
"Cc1cc(OCC(=O)NC(C)c2nc3ccc(Cl)cc3s2)nc2c1c(C1CC1)nn2C (centres unmarked) [Example 7.30, N-(1-(6-chlorobenzo[d]thiazol-2-yl)ethyl)-2-(3-cyclopropyl-1,4-dimethyl-1H-pyrazolo[3,4-b]pyridin-6-yloxy)acetamide]",–,26,–,938
"Cc1ccc2c(cnn2C)c1CNC(=O)COc1cc(C)c2c(C3CC3)nn(C)c2n1 [Example 7.31, 2-(3-cyclopropyl-1,4-dimethyl-1H-pyrazolo[3,4-b]pyridin-6-yloxy)-N-((1,5-dimethyl-1H-indazol-4-yl)methyl)acetamide]",–,–,833,857
